Measurements as given in patent US11401295B2, “Cyclic dinucleotide compound and uses thereof” (SHANGHAI JEMINCARE PHARMACEUTICALS CO., LTD., priority 2018, dated 2022).
Like-named read-outs stand apart in the source and are kept apart here.

Key:
[1] = system: IRF3 pathway in THP1-Dual cells; test: THP1-Dual reporter gene activity assay (Lucia luciferase, QUANTI-Luc); assay type: cell-based, human
Source text: THP1-Dual™ cells (InvivoGen catalog code: thpd-nfis) used in the test were constructed by stably integrating two inducible reporter genes into the human monocyte cell line THP1. The promoter sequence composition of the secretory embryonic alkaline phosphatase (SEAP) reporter gene consists of an IFN-β primary promoter and five copies of the upstream NF-κB co-expression transcriptional response element and three copies of the c-Rel binding site. The secretory luciferase (Lucia) reporter gene is driven by five interferon (IFN)-stimulated response elements and a basic promoter of ISG54. This made it possible to study simultaneously the two major downstream signaling pathways of STING: the NF κB pathway by detecting SEAP activity: and the IRF pathway by evaluating the activity of Lucia luciferase.
The compounds were diluted with PB buffer (50 mM HEPES, 100 mM KCl, 3 mM MgCl2, 0.1 mM DTT, 85 mM Sucrose, 1 mM ATP, 0.1 mM GTP, 0.20% BSA). 20 μL of the reference or tested compound was added to each well in a 96-well plate, followed by 180 μL of THP1-Dual cells (approximately 100,000 cells/well) suspended in PB buffer. The plate was incubated for 30 minutes at 37° C. under […], and centrifuged at 1000 rpm for 10 minutes. The supernatant was discarded. […] The supernatants were collected and QUANTI-Luc™ was used to quantify the activation of the IRF3 pathway according to the manufacturer's instructions.

[2] = system: IRF3 pathway in RAW-Dual cells (RAW264.7); test: Raw-Dual reporter gene activity assay (luciferase, QUANTI-Luc); assay type: cell-based, mouse
Protocol: The RAW-Dual™ cells used in the test (InvivoGen catalog code: rawd-ismip) were constructed by stably integrating two inducible reporter genes in mouse macrophage cell line RAW264.7. The NF-KB pathway was studied by detecting SEAP activity and the IRF3 pathway was studied by evaluating the activity of luciferase. […] On the second day, the culture medium was discarded, and 200 μL of compound solution prepared in advance with the culture medium was added into each well followed by incubation at room temperature for 30 minutes. After the treatment medium was sucked out, it was washed twice with serum-free culture medium, and 200 μL of culture medium was added into each well, followed by incubation in an incubator at 37° C. for 18-24 hours. On the third day, 20 μL of supernatant was collected per well and QUANTI-Luc™ was used to quantify the activation of IRF3 pathway according to the manufacturer's instructions.

[3] = Mus musculus, RAW264.7, read-out: Raw, EC50
[4] = THP1-Dual cells, IRF3 pathway (Lucia), 30 min treatment, 18 hours incubation, read-out: EC50

| SMILES | EC50 [1] [µM] | EC50 [2, 3] [µM] | EC50 ([2]; read-out: Raw, EC50) [µM] | other results |
| --- | --- | --- | --- | --- |
| BP1(=O)OC[C@H]2O[C@@H](n3cnc4c(N)ncnc43)C(O)[C@H]2OP(=O)(S)OC[C@H]2O[C@@H](n3cnc4c(N)ncnc43)C(F)[C@H]2O1 (single isomer, unassigned) [Compound 1C] | 16.8 | 41.4 |  |  |
| BP1(=O)OC[C@H]2O[C@@H](n3cnc4c(N)ncnc43)C(O)[C@H]2OP(=O)(S)OC[C@H]2O[C@@H](n3cnc4c(N)ncnc43)C(F)[C@H]2O1 (single isomer, unassigned) [Compound 1D] | 7.48 |  | 24.4 |  |
| BP1(=O)OC[C@H]2O[C@@H](n3cnc4c(N)ncnc43)[C@@H](F)C2OP(B)(=O)OC[C@H]2O[C@@H](n3cc(F)c4c(=O)[nH]cnc43)[C@@H](O)C2O1 (single isomer, unassigned) [Compound 3B] |  |  |  | EC50 ([1]; Homo sapiens, THP1-Dual): 42.2 µM |
| BP1(=O)OC[C@H]2O[C@@H](n3cnc4c(N)ncnc43)[C@@H](F)C2OP(B)(=O)OC[C@H]2O[C@@H](n3cc(F)c4c(=O)[nH]cnc43)[C@@H](O)C2O1 (single isomer, unassigned) [Compound 3C] | 47.2 | 9.4 |  |  |
| BP1(=O)OC[C@H]2O[C@@H](n3cnc4c(N)ncnc43)[C@@H](F)C2OP(B)(=O)OC[C@H]2O[C@@H](n3cc(F)c4c(=O)[nH]cnc43)[C@@H](O)C2O1 (single isomer, unassigned) [Compound 3D] | 26.1 |  | 10 |  |
| BP1(=O)OC[C@@]23COC([C@H](n4cnc5c(N)ncnc54)O2)[C@H]3OP(B)(=O)OC[C@H]2O[C@@H](n3cnc4c(N)ncnc43)[C@@H](F)C2O1 (single isomer, unassigned) [Compound 5A] | 6.2 |  |  |  |
| BP1(=O)OC[C@@]23COC([C@H](n4cnc5c(N)ncnc54)O2)[C@H]3OP(B)(=O)OC[C@H]2O[C@@H](n3cnc4c(N)ncnc43)[C@@H](F)C2O1 (single isomer, unassigned) [Compound 5B] |  | 54.8 |  | EC50 ([1]; Homo sapiens, THP1-Dual): 11.4 µM |
| BP1(=O)OC[C@@]23COC([C@H](n4cnc5c(N)ncnc54)O2)[C@H]3OP(B)(=O)OC[C@H]2O[C@@H](n3cnc4c(N)ncnc43)[C@@H](F)C2O1 (single isomer, unassigned) [Compound 5C] |  |  | 28.2 |  |
| BP1(=O)OC[C@@]23COC([C@H](n4cnc5c(N)ncnc54)O2)[C@H]3OP(B)(=O)OC[C@H]2O[C@@H](n3cnc4c(N)ncnc43)[C@@H](F)C2O1 (single isomer, unassigned) [Compound 5D] | 12.6 | 31.6 |  |  |
| BP1(=O)OC[C@H]2O[C@@H](n3cc(F)c4c(=O)[nH]cnc43)[C@@H](F)C2OP(B)(=O)OC[C@H]2O[C@@H](n3cnc4c(N)ncnc43)[C@@H](F)C2O1 (single isomer, unassigned) [Compound 6A] | 1.36 |  |  |  |
| BP1(=O)OC[C@H]2O[C@@H](n3cc(F)c4c(=O)[nH]cnc43)[C@@H](F)C2OP(B)(=O)OC[C@H]2O[C@@H](n3cnc4c(N)ncnc43)[C@@H](F)C2O1 (single isomer, unassigned) [Compound 6B] | 9.31 |  | 5.4 |  |
| BP1(=O)OC[C@H]2O[C@@H](n3cc(F)c4c(=O)[nH]cnc43)[C@@H](F)C2OP(B)(=O)OC[C@H]2O[C@@H](n3cnc4c(N)ncnc43)[C@@H](F)C2O1 (single isomer, unassigned) [Compound 6C] | 2.31 |  | 1.1 |  |
| BP1(=O)OC[C@H]2O[C@@H](n3cc(F)c4c(=O)[nH]cnc43)[C@@H](F)C2OP(B)(=O)OC[C@H]2O[C@@H](n3cnc4c(N)ncnc43)[C@@H](F)C2O1 (single isomer, unassigned) [Compound 6D] | 12.3 |  | 9.5 |  |
| Nc1nc2c(ncn2[C@@H]2O[C@@H]3COP(=O)(O)O[C@H]4[C@@H](O)[C@H](n5cnc6c(N)ncnc65)O[C@@H]4COP(=O)(O)O[C@@H]2[C@@H]3O)c(=O)[nH]1 [2′,3′-cGAMP, (2′ 3′) cyclic guanosine monophosphate-adenosine monophosphate, reference compound] |  |  |  | EC50 [1, 4]: 20.2 µM |
| Nc1ncnc2c1ncn2[C@@H]1O[C@@H]2COP(=O)(S)O[C@@H]3[C@H](O)[C@@H](COP(O)(=S)O[C@H]2[C@H]1O)O[C@H]3n1cnc2c(N)ncnc21 (stereo partly drawn) [ADU-S100, reference compound] |  |  |  | EC50 [1, 4]: 23.4 µM; EC50 ([2]; RAW-Dual cells, IRF3 pathway, 30 min treatment, 18-24 hours incubation, read-out: Raw, EC50): 47.1 µM |
| BP1(=O)OC[C@H]2O[C@@H](n3cnc4c(N)ncnc43)C(O)[C@H]2OP(=O)(S)OC[C@H]2O[C@@H](n3cnc4c(N)ncnc43)[C@@H](F)C2O1 (stereo partly drawn) [Compound 1A] |  |  |  | EC50 ([1]; Homo sapiens, THP1-Dual): 74.7 µM |
| BP1(=O)OC[C@H]2O[C@@H](n3cnc4c(N)ncnc43)C(O)[C@H]2OP(=O)(S)OC[C@H]2O[C@@H](n3cnc4c(N)ncnc43)C(F)[C@H]2O1 (stereo partly drawn) [Compound 1B] |  | 15.8 |  | EC50 ([1]; Homo sapiens, THP1-Dual): 7.38 µM |
| BP1(=O)OC[C@H]2O[C@@H](n3cnc4c(N)ncnc43)C(F)[C@H]2OP(B)(=O)OC[C@H]2O[C@@H](n3cnc4c(N)ncnc43)[C@@H](F)C2O1 (stereo partly drawn) [Compound 2A] |  | 23.4 |  | EC50 ([1]; Homo sapiens, THP1-Dual): 1.75 µM |
